Assay results published in PMC9500858 (International Journal of Molecular Sciences, 2022).
pEC50: −log10 of the molar value. Where two headings read alike, the source gives them in different places.

Legend:
[1] = Base hydrolysis (1 M NaOH) forced degradation, LC-MS; type: physicochemical; conditions: for Recovery / Concentration Found (Mean ± SD): basic degradation, 50 μg/mL in 1 M NaOH, n = 3; for Concentration Found (Mean ± SD): neutralised with 1 M HCl
Experimental: (§1) The separation was carried out using Kinetex XB-C18 column (150 mm × 2.1 mm × 1.7 μm; Phenomenex, Torrance, CA, USA). The mobile phase consisted of A: 0.1% formic acid in deionized water and B: 0.1% formic acid in acetonitrile (MeCN). The two-step gradient was used from 5% B to 50% B in 13 min and from 50% B to 65% B up to 20 min. The column temperature was maintained at 25 °C with a flow rate equal to 0.3 mL/min. The eluate was introduced directly to the mass spectrometer. The ion trap setting was as follows: capillary voltage 4500 V, endplate offset 500 V, nebulizer pressure 40 psi, drying gas temperature 145 °C and gas flow rate 9 L/min. The instrument used a smart parameter setting (SPS) fixed at 1000 amu. The scan range was from m/z = 70 to m/z = 2200. Compounds were analyzed in […] ion mode.
(§2) Before LC analysis, the ionization of each quantified compound in the positive ion mode was optimized by the direct injection of standard (50 µg/mL in 0.1% HCOOH in H2O; 0.3 mL/min) into the ESI source of the mass spectrometer. The intensity of the most abundant ion for each compound was monitored in order to choose optimal conditions. The quantification of investigated compounds was performed using the dominating ion (for both PK20 and [Ile^9] PK20 the ion at m/z =1357.40 ± 0.3, retention time ca. 11.2 min).
(§3) The calibration curves were plotted as the amount of injected compound (ng) vs. detector response (peak area) using extracted ion chromatograms (EIC) for the characteristic ion for each compound. The linear range for each quantified compound was between 5 and 200 ng per injection. Five amount levels were used for the plotting of curves. Samples at each level were analyzed in triplicate.
(§4) The stability of PK20 and [Ile^9]PK20 was tested under acidic, basic, oxidative, heat, freeze and ultraviolet light conditions. All experiments were conducted in triplicate (n = 3). The comparison of peak areas in degradative and non-degradative conditions for both compounds can be observed in Figure 3 and Figure 4.
(§5) Drug solution (50 μg/mL) was prepared in HCl (1 M) or NaOH (1 M). Aliquots were kept at a temperature of 80 °C (LBK type water bath, SWL Bytom, Poland) for 12 h and 37°C (medical water bath, LW102, Auritronic, Krakow, Poland) for 24 h. At a specific time-point, acidic and basic solutions of both PK20 and [Ile^9]PK20 were neutralized with an equal volume of 1 M NaOH or 1 M HCl, respectively, and diluted with an equal volume of 0.2% formic acid in acetonitrile and analyzed using LC-MS.

[2] = Acid hydrolysis (1 M HCl) forced degradation, LC-MS; type: physicochemical; conditions: for Recovery / Concentration Found (Mean ± SD): acidic degradation, 50 μg/mL in 1 M HCl, n = 3; for Concentration Found (Mean ± SD): neutralised with 1 M NaOH
Experimental: as §1, §2, §3, §4, §5

[3] = system: CA1 region of the hippocampus; conditions: combined administration with NMDA, cited from earlier work
From the text: (§6) Since hybrid compounds have gained attention due to their potent multifunctional behavior with a more favorable profile in terms of possible side effects, much work devoted to such compounds can be found. PK20 and [Ile^9]PK20, which are hybrid structures encompassing both opioid and neurotensin pharmacophores, although modified, were designed and synthesized to reduce pain.

mu opioid receptor = conditions: intrinsic activity of the receptor; read-out: EC50 (potency) at mu opioid receptor; cited from earlier work
From the text: as §6

[4] = Thermal degradation and freeze-thaw in Mili-Q water, LC-MS; type: physicochemical; conditions: 50 μg/mL in Mili-Q water; for Concentration Found (Mean ± SD) / Recovery: n = 3
Experimental: as §1, §2, §3, §4
Solutions (50 μg/mL) of both hybrid peptides were prepared in Mili-Q water, and aliquots were kept at room temperature 22 °C, 37 °C and −80 °C for 24 h and at 80 °C for 12 h. One aliquot was also subjected to two freeze–thaw cycles with the sample first frozen at −80°C for 24 h, defrosted under running tap water at room temperature for 2 h and second frozen at −20°C for 24 h and defrosted under running tap water at room temperature for 2 h. Then, the solutions of PK20 and [Ile^9]PK20 were diluted with an equal volume of 0.2% formic acid in acetonitrile and analyzed with LC-MS.

[5] = Oxidative degradation (30% H2O2), LC-MS; type: physicochemical; conditions: n = 3
Experimental: as §1, §2, §3, §4
PK20 and [Ile^9]PK20 solution (50 μg/mL) was prepared in 30% (v/v) hydrogen peroxide (H2O2). Aliquots were incubated at 37 °C for 24 h and 80 °C for 12 h. After the incubation, each drug solution was diluted with an equal volume of 0.2% formic acid in acetonitrile and analyzed with LC-MS.

[6] = Photolytic (UV) degradation in Mili-Q water, LC-MS; type: physicochemical; conditions: 365 nm UV light, 7 h, 50 μg/mL in Mili-Q water, clear plastic vials, n = 3
Experimental: as §1, §2, §3, §4
PK20 and [Ile^9]PK20 solution (50 μg/mL) was prepared in Mili-Q water, and aliquots were kept in clear plastic vials exposed to UV light (366 nm, Camag, UV Lamp 4, Camag, Switzerland) for 7 h. After the incubation, the drug solution was diluted with an equal volume of 0.2% formic acid in acetonitrile and analyzed with LC-MS.

[7] = thermal degradation, 37 °C, 24 h
[8] = thermal degradation, 80 °C, 12 h
[9] = thermal degradation, room temperature (22 °C), 24 h
[10] = thermal degradation, −80 °C, 24 h
[11] = thermal, temperatures ranging from 22 °C through 37 °C to +80 °C
[12] = two freeze–thaw cycles (24 h −80 °C, 2 h 22 °C, 24 h −20 °C)
[13] = 50 μg/mL in 30% (v/v) H2O2, 37 °C, 24 h
[14] = 50 μg/mL in 30% (v/v) H2O2, 80 °C, 12 h

In the case of “HELM PEPTIDE1{[Cc1cc(O)cc(C)c1C[C@H](N)C(=O)[*:2]].[dK].F.F.K.K.P.F.[CC(C)(C)[C@H](N[*:1])C(=O)[*:2]].L}$$$$V2.0 (N-terminus assumed; SMILES Cc1cc(O)cc(C)c1C[C@H](N)C(=O)N[C@H](CCCCN)C(=O)N[C@@H](Cc1ccccc1)C(=O)N[C@@H](Cc1ccccc1)C(=O)N[C@@H](CCCCN)C(=O)N[C@@H](CCCCN)C(=O)N1CCC[C@H]1C(=O)N[C@@H](Cc1ccccc1)C(=O)N[C@H](C(=O)N[C@@H](CC(C)C)C(=O)O)C(C)(C)C) [PK20, opioid–neurotensin hybrid peptide]”, the Recovery ([1]; 37 °C, 24 h) was 30.32%, the “Concentration Found (Mean ± SD)” value ([1]; 37 °C, 24 h) was 15.16 ± 0.34 µg/mL and the Recovery ([1]; 80 °C, 12 h) was 11.44%. For the same substance, the “Concentration Found (Mean ± SD)” value ([1]; 80 °C, 12 h) was 5.71 ± 1.67 µg/mL, the “half-life (t1/2) in 1M NaOH” value ([1]; calculated half-life, alkaline conditions, 1 M NaOH, 50 μg/mL, temperature not given for the half-life) was 11.36 h and the Recovery ([2]; 37 °C, 24 h, LC-MS) was 78.19%. For the same substance, the “Concentration Found (Mean ± SD)” value ([2]; 37 °C, 24 h, LC-MS (EIC m/z 1357.40)) was 39.09 ± 6.33 µg/mL, the Recovery ([2]; 80 °C, 12 h, LC-MS) was 54.43% and the “Concentration Found (Mean ± SD)” value ([2]; 80 °C, 12 h, LC-MS) was 27.22 ± 2.75 µg/mL. For the same substance, the “half-life in 1M HCl” value ([2]; calculated half-life, acidic conditions, 1 M HCl, 50 μg/mL, temperature not given for the half-life, LC-MS) was 204.4 h, the “extent of damage to the CA1 region of the hippocampus” value (shortened to “extent of damage”) ([3]; dose 25 ng/mL) was 1.47% ± 1.20 and the “extent of damage” value ([3]; dose 50 ng/mL) was 5.18% ± 2.84. For the same substance, the “extent of damage” value ([3]; dose 100 ng/mL) was 6.82% ± 6.08, the pEC50 (mu opioid receptor) was 7.10 and the “Concentration Found (Mean ± SD)” value [4, 7] was 49.98 ± 0.35 µg/mL. The Recovery [4, 7] was 99.97%, the “Concentration Found (Mean ± SD)” value [4, 8] was 48.67 ± 2.74 µg/mL and the Recovery [4, 8] was 97.34%. The “Concentration Found (Mean ± SD)” value [4, 9] was 51.36 ± 1.64 µg/mL, the Recovery [4, 9] was 102.72% and the “Concentration Found (Mean ± SD)” value [4, 10] was 51.90 ± 0.20 µg/mL. For the same substance, the Recovery [4, 10] was 103.80%, the “remaining concentration of the peptide” value [4, 11] was “approximately 50 μg/mL” and the “remaining peptide as percentage” value [4, 11] was about 100%. The “Concentration Found (Mean ± SD)” value [4, 12] was 43.25 ± 9.42 µg/mL, the Recovery [4, 12] was 86.50% and the “Concentration Found (Mean ± SD)” value [5, 13] was 30.52 ± 0.49 µg/mL. The Recovery [5, 13] was 61.04%, the “Concentration Found (Mean ± SD)” value [5, 14] was 9.80 ± 0.2 µg/mL and the Recovery [5, 14] was 19.60%. The “Concentration Found (Mean ± SD)” value ([6]; mean ± SD) was 18.72 ± 0.94 µg/mL and the Recovery [6] was 37.44%.
